Reference: publication PMC9964404, “Molecular Modeling and In Vitro Evaluation of Piplartine Analogs against Oral Squamous Cell Carcinoma” (Molecules, 2023)
Like-named read-outs stand apart in the source and are kept apart here.

How the values were obtained:
[1] = system: HT-29 (colon adenocarcinoma); test: MTT cell viability assay, HT-29; type: cell-based
Protocol: (§1) SCC cells (SCC9 and SCC4), derived from human tongue OSCC, were obtained by (ATCC® CRL-1629 and CRL-1624) and maintained in DMEM/F12 1:1 medium (Dulbecco’s modified Eagle’s medium and Ham’s F12 medium, Gibco (Thermo Fisher, Waltham, MA, USA), supplemented with 10% (v/v) FBS (Fetal Bovine Serum; Invitrogen, Thermo Fisher, Waltham, MA, USA) and 400 ng/mL hydrocortisone (Sigma-AldrichCo., St. Louis, MO, USA). Primary normal gingival fibroblast human (PCS201 018TM) and other tumor cells B16-F10 (CRL-6475), Hep G2 (HB-8065), and HT-29 (HTB-38) were also obtained at ATCC and maintained in DMEM supplemented with 10% (v/v) FCS. Cells were cultured in a humidified environment containing 5% CO2 at 37 °C. […]
(§2) The viability of cancer cells and primary fibroblasts was tested using the MTT assay as described in MACHADO et al., 2021 [49]. […] Subsequently, the formazan crystals were dissolved by MTT solvent (50% Methanol and 50% DMSO), and the absorbance was read at 560 nm using the EPOCH microplate spectrophotometer (BioTekInstruments, Winooski, VT, USA).
(§3) IC50 values for the MTT assay were obtained by non-linear regression using GraphPad Prism 5.0 software (GraphPad, San Diego, CA, USA) from at least three independent experiments. […] The selectivity index was calculated as: S.I. = IC50 of the compound in fibroblasts/IC50 of the same compound in tumor cells.

[2] = system: Oral Tumor Cells (SCC9, SCC4); test: MTT cell viability assay, average of OSCC lines SCC9 and SCC4; type: cell-based, human; details: Homo sapiens
Protocol: (§4) SCC cells (SCC9 and SCC4), derived from human tongue OSCC, were obtained by (ATCC® CRL-1629 and CRL-1624) and maintained in DMEM/F12 1:1 medium (Dulbecco’s modified Eagle’s medium and Ham’s F12 medium, Gibco (Thermo Fisher, Waltham, MA, USA), supplemented with 10% (v/v) FBS (Fetal Bovine Serum; Invitrogen, Thermo Fisher, Waltham, MA, USA) and 400 ng/mL hydrocortisone (Sigma-AldrichCo., St. Louis, MO, USA). Primary normal gingival fibroblast human (PCS201 018TM) and other tumor cells B16-F10 (CRL-6475), Hep G2 (HB-8065), and HT-29 (HTB-38) were also obtained at ATCC and maintained in DMEM supplemented with 10% (v/v) FCS. Cells were cultured in a humidified environment containing 5% CO2 at 37 °C. For all experiments, the compounds were solubilized in DMSO (Sigma-Aldrich) for a final concentration of 100 mM. From this dilution, other concentrations were made to carry out the cell viability assay. Carboplatin (Fauldcarbo®; Libbs Farmacêutica, São Paulo, SP, Brazil) was used as a control antitumor compound.
(§5) The viability of cancer cells and primary fibroblasts was tested using the MTT assay as described in MACHADO et al., 2021 [49]. Briefly, cancer cells (5 × 10^3 cells/well) were plated in duplicate in a 96-well plate, as indicated. DMSO was diluted in culture medium at the same concentrations and was used as a negative control, representing 100% cell viability. After 48 h of treatment, cells were incubated for 3.5 h with 5 mg/mL of MTT reagent (3,4,5-dimethiazol-2,5-diphenyltetrazoliumbromide) (Sigma-Aldrich Co., St. Louis, MO, USA) diluted in culture medium. Subsequently, the formazan crystals were dissolved by MTT solvent (50% Methanol and 50% DMSO), and the absorbance was read at 560 nm using the EPOCH microplate spectrophotometer (BioTekInstruments, Winooski, VT, USA).
as §3

B16-F10 (melanoma) = test: MTT cell viability assay, B16-F10; type: cell-based; details: Mus musculus
Protocol: as §1, §2, §3

SCC9 cells [3] = test: SubG1 analysis (propidium iodide DNA content); type: cell-based, human; details: SCC9, 48 h
Protocol: (§6) To evaluate the action of the compound 9 on the cell cycle, cells of the SCC9 lineage were plated in a six-well plate (5 × 10^5 cells/well) as described in LUCENA et al., 2016. After 48h of treatment, cells were trypsinized and stained with propidium iodide (75 µM; Sigma) in the presence of NP-40 (Sigma). DNA content was analyzed by collecting 10,000 events using a FACScalibur flow cytometer. Data were analyzed using CellQuest (BD Biosciences) and FlowJo (Tree Star Inc., Ashland, OR, USA) software. (Version 9.9.4).

mouse erythrocytes = test: Hemolytic activity in mouse erythrocytes; type: cell-based; details: mouse erythrocytes as printed
HEP G2 (hepatocarcinoma) = test: MTT cell viability assay, HEP G2; type: cell-based
Protocol: as §1, §2, §3

[4] = system: Primary Gingival Fibroblast; test: MTT cell viability assay, normal fibroblasts; type: cell-based, human; details: Homo sapiens, Fibroblast, 48 h treatment
Protocol: as §4, §5
(§7) IC50 values for the MTT assay were obtained by non-linear regression using GraphPad Prism 5.0 software (GraphPad, San Diego, CA, USA) from at least three independent experiments. Data are presented as means, ± standard deviation (SD). A log dose response (inhibitor) vs. response curve using the least square method was used to determine the IC50 and SD of the data. The selectivity index was calculated as: S.I. = IC50 of the compound in fibroblasts/IC50 of the same compound in tumor cells.

SCC9 cells [5] = test: Phosphatidylserine exposure analysis (annexin V-FITC / P.I., flow cytometry); type: cell-based, human; details: SCC9, 48 h
Protocol: Cells of the SCC9 cell line were plated in six-well plates (5 × 10^5 cells/well), trypsinized 48 h after treatment, labeled using the Annexin V-FITC Apoptosis Detection Kit according to the manufacturer’s protocol (#BMS500FI/300, Invitrogen), and analyzed by flow cytometry.

SCC4 cells = test: MTT cell viability assay, SCC4; type: cell-based, human; details: Homo sapiens, SCC-4, 48 h treatment, read-out: SCC4 IC50
Protocol: as §4, §5, §7

SCC9 cells [6] = test: Cell cycle analysis (propidium iodide); type: cell-based, human; details: SCC9, 48 h
Protocol: as §6

SCC9 cells [7] = test: MTT cell viability (cytotoxicity) assay, SCC9; type: cell-based, human; details: Homo sapiens
Protocol: as §4, §5, §7

Hemolysis assay = type: cell-based; details: human erythrocytes
Protocol: Human blood was used as approved by the Research Ethics Committee of the Fluminense Federal University–Nova Friburgo, RJ (CAAE: 43134721.4.0000.5626). The erythrocytes were collected by centrifugation at 1500 rpm for 15 min, washed with PBS (phosphate buffer saline) and 10 mM glucose, and counted in an automatic cells counter (Thermo Fisher, Waltham, MA, USA). The erythrocytes were then plated in 96-well plates at a concentration of 4 × 10^8/well in triplicate, and 10 µL of the compounds were added at a final concentration of 1000 µM in PBS with glucose (final volume of 100 µL). Ten microliters of PBS were used as negative control and 10 µL of PBS with 0.1% Triton ×100 as a positive control. Data reading was performed with EPOCH (BioTek Instruments, Winooski, VT, USA) at 540 nm absorbance, and statistical data were generated with the GRAPHPAD Prism 5.0 program (Intuitive Software for Science, San Diego, CA, USA).

SCC9 cells [8] = test: Caspase 3/7 analysis (flow cytometry); type: cell-based, human; details: SCC9, 2 × IC50, 48 h
Protocol: For active caspase detection, 5 × 10^4 SCC9 cells were plated in a 24-well plate containing 1 mL of DMEM/F12 with 10% FBS per well. CellEvent™ Caspase-3/7 reagent (#R37111, Invitrogen) was diluted in culture medium according to the manufacturer’s instructions. Twenty-four hours after plating, cells were treated with Caspase-3/7 reagent and 2× IC50 of 9 or DMSO as a control. Cells were analyzed by flow cytometry after 48 h of treatment.

## COc1ccc(COC(=O)c2cc(OC)c(OC)c(OC)c2)cc1 [Compound 9, 4-Methoxy-benzyl 3,4,5–trimethoxybenzoate]
[1]; HT-29
  IC50: 7.31 µM
[1]; Homo sapiens, HT-29, HT-29
  IC50: < 10 µM
[2]
  IC50: 48 µM
B16-F10 (melanoma)
  IC50: 73.3 µM
SCC9 cells [3]
  DNA fragmentation (SubG1 DNA content): ~ 21%
Mouse erythrocytes
  hemolytic activity: did not reveal hemolytic activity
HEP G2 (hepatocarcinoma); HEP G2
  IC50: 6.63 µM
HEP G2 (hepatocarcinoma); Homo sapiens, HepG2, HEP G2
  IC50: < 10 µM
[4]; read-out: Primary Gingival Fibroblast IC50
  IC50: 741 µM
[4]; read-out: Primary Gingival Fibroblast IC50 (µg/mL)
  IC50: 246 µg/mL
SCC9 cells [5]
  annexin V single- and/or double-positive (PI+) labeling: ~ 17%
  increase in annexin V labeling versus control: four-fold increase
SCC4 cells
  IC50: 49.8 µM
SCC9 cells [6]
  Cycle Phase % G2/M: ~ 59%
SCC9 cells [7]; SCC-9, 48 h, read-out: SCC9 IC50 (µg/mL)
  IC50: 15.4 µg/mL
SCC9 cells [7]; SCC-9, 48 h treatment, MTT, read-out: SCC9 IC50
  IC50: 46.2 µM
Hemolysis assay
  hemolysis at 1000 µM: < 1%
SCC9 cells [8]
  Active caspase 3/7: ~ 66%
